Experimental data published in PMC4631615 (Bipolar disorders, 2015).
Where “and” joins values, the source holds several entries; their conditions need not be identical. Equal entries are not always repeated. Marks after values point to notes of the source that are not given here.

Columns and labels:
mouse = settings: source not given; cited from earlier work
pregnant SWV mice [1] = assay: Maternal body weight and weight gain, teratogenicity study; assay type: in vivo, mouse; settings: mean ± SD
SWV mouse fetuses [2] = assay: Skeletal examination of fetuses; assay type: in vivo
pregnant SWV mice [3] = assay: Pregnancy outcomes; assay type: in vivo, mouse; settings: for Fetus weight: mean ± SD
SWV mouse fetuses [4] = tested on: SWV mouse fetuses
NMRI mice = settings: injected on GD 8 with 3 mmol/kg; cited from earlier work
[5] = 1/4.36 of LD50 (RIS 14.5, VCD 229.2 mg/kg) p.o. GD 4–17
[6] = 1/6.54 of LD50 (RIS 9.6, OLA 32.1, VCD 152.8 mg/kg) p.o. GD 4–17

**Q.** For `Cc1nc2n(c(=O)c1CCN1CCC(c3noc4cc(F)ccc34)CC1)CCCC2` [RIS, 3-(2-(4-(6-fluoro-1,2-benzisoxazol-3-yl)piperidino)ethyl)-6,7,8,9-tetrahydro-2-methyl-4H-pyrido(1,2-a)pyrimidin-4-one], which “LD50 mouse, oral” value (mouse) is on record?
**A.** 63 mg/kg

**Q.** What about the “Dams net weight gain” value (pregnant SWV mice [1]; [5]) of the same compound?
**A.** 7.4 ± 2.3 ^a grams

**Q.** What about the “Dams weight GD 18” value (pregnant SWV mice [1]; [5]) of the same compound?
**A.** 47.1 ± 3.2 grams

**Q.** And the Dams weight gain (pregnant SWV mice [1]; [5])?
**A.** 18.1 grams and 18.1 ± 2.5 ^a grams

**Q.** What about the “Dams net weight gain” value (pregnant SWV mice [1]; [6]) of the same compound?
**A.** 7.5 ± 2.0 grams

**Q.** What about the “Dams weight GD 18” value (pregnant SWV mice [1]; [6]) of the same compound?
**A.** 46.9 ± 4.8 grams

**Q.** And the Dams weight gain (pregnant SWV mice [1]; [6])?
**A.** 19.4 ± 4.2 grams

**Q.** What about the “All vertebra: incomplete ossification, affected fetuses” value (SWV mouse fetuses [2]; [5]) of the same compound?
**A.** 0

**Q.** And the “Cervical vertebra: ossified fusion of centrums, affected fetuses” value (SWV mouse fetuses [2]; [5])?
**A.** 0

**Q.** And the “Fetuses with skeletal abnormalities, %” value (SWV mouse fetuses [2]; [5])?
**A.** 20.1%

**Q.** What about the “Fibula: bent, affected fetuses” value (SWV mouse fetuses [2]; [5]) of the same compound?
**A.** 0

**Q.** And the “Metacarpal: absent ossification, affected fetuses” value (SWV mouse fetuses [2]; [5])?
**A.** 6

**Q.** What about the “Metacarpal: absent ossification, affected litters” value (SWV mouse fetuses [2]; [5]) of the same compound?
**A.** 1

**Q.** What about the “Metacarpal: incomplete ossification, affected fetuses” value (SWV mouse fetuses [2]; [5]) of the same compound?
**A.** 0

**Q.** What about the “Metatarsal: absent ossification, affected fetuses” value (SWV mouse fetuses [2]; [5]) of the same compound?
**A.** 6

**Q.** What about the “Metatarsal: absent ossification, affected litters” value (SWV mouse fetuses [2]; [5]) of the same compound?
**A.** 1

**Q.** And the “Metatarsal: incomplete ossification, affected fetuses” value (SWV mouse fetuses [2]; [5])?
**A.** 0

**Q.** What about the “Ribs: absent 13th, affected fetuses” value (SWV mouse fetuses [2]; [5]) of the same compound?
**A.** 0

**Q.** And the “Ribs: branched, affected fetuses” value (SWV mouse fetuses [2]; [5])?
**A.** 0

**Q.** And the “Skull: incomplete ossification, affected fetuses” value (SWV mouse fetuses [2]; [5])?
**A.** 6

**Q.** And the “Skull: incomplete ossification, affected litters” value (SWV mouse fetuses [2]; [5])?
**A.** 1

**Q.** And the “Skull: interparietal incomplete ossification, affected fetuses” value (SWV mouse fetuses [2]; [5])?
**A.** 0

**Q.** What about the “Skull: parietal incomplete ossification, affected fetuses” value (SWV mouse fetuses [2]; [5]) of the same compound?
**A.** 1/1

**Q.** What about the “Skull: parietal incomplete ossification, affected litters” value (SWV mouse fetuses [2]; [5]) of the same compound?
**A.** 1/1

**Q.** What about the “Skull: supraoccipital incomplete ossification, affected fetuses” value (SWV mouse fetuses [2]; [5]) of the same compound?
**A.** 0

**Q.** What about the “Sternebra: absent ossification, affected fetuses” value (SWV mouse fetuses [2]; [5]) of the same compound?
**A.** 7

**Q.** And the “Sternebra: absent ossification, affected litters” value (SWV mouse fetuses [2]; [5])?
**A.** 2

**Q.** What about the “Sternebra: incomplete ossification, affected fetuses” value (SWV mouse fetuses [2]; [5]) of the same compound?
**A.** 13

**Q.** What about the “Sternebra: incomplete ossification, affected litters” value (SWV mouse fetuses [2]; [5]) of the same compound?
**A.** 9

**Q.** And the “Sternebra: misaligned, affected fetuses” value (SWV mouse fetuses [2]; [5])?
**A.** 0

**Q.** And the “Sternebra: misshapen, affected fetuses” value (SWV mouse fetuses [2]; [5])?
**A.** 1/1

**Q.** And the “Sternebra: misshapen, affected litters” value (SWV mouse fetuses [2]; [5])?
**A.** 1/1

**Q.** What about the “Whole skeletal system: incomplete ossification, affected fetuses” value (SWV mouse fetuses [2]; [5]) of the same compound?
**A.** 2

**Q.** And the “Whole skeletal system: incomplete ossification, affected litters” value (SWV mouse fetuses [2]; [5])?
**A.** 1

**Q.** And the “All vertebra: incomplete ossification, affected fetuses” value (SWV mouse fetuses [2]; [6])?
**A.** 0

**Q.** What about the “Cervical vertebra: ossified fusion of centrums, affected fetuses” value (SWV mouse fetuses [2]; [6]) of the same compound?
**A.** 0

**Q.** And the “Fetuses with skeletal abnormalities, %” value (SWV mouse fetuses [2]; [6])?
**A.** 10.8%

**Q.** What about the “Fibula: bent, affected fetuses” value (SWV mouse fetuses [2]; [6]) of the same compound?
**A.** 0

**Q.** And the “Metacarpal: absent ossification, affected fetuses” value (SWV mouse fetuses [2]; [6])?
**A.** 0

**Q.** And the “Metacarpal: incomplete ossification, affected fetuses” value (SWV mouse fetuses [2]; [6])?
**A.** 1/1

**Q.** What about the “Metacarpal: incomplete ossification, affected litters” value (SWV mouse fetuses [2]; [6]) of the same compound?
**A.** 1/1

**Q.** What about the “Metatarsal: absent ossification, affected fetuses” value (SWV mouse fetuses [2]; [6]) of the same compound?
**A.** 0

**Q.** What about the “Metatarsal: incomplete ossification, affected fetuses” value (SWV mouse fetuses [2]; [6]) of the same compound?
**A.** 1/1

**Q.** And the “Metatarsal: incomplete ossification, affected litters” value (SWV mouse fetuses [2]; [6])?
**A.** 1/1

**Q.** What about the “Ribs: absent 13th, affected fetuses” value (SWV mouse fetuses [2]; [6]) of the same compound?
**A.** 0

**Q.** And the “Ribs: branched, affected fetuses” value (SWV mouse fetuses [2]; [6])?
**A.** 0

**Q.** What about the “Skull: incomplete ossification, affected fetuses” value (SWV mouse fetuses [2]; [6]) of the same compound?
**A.** 3

**Q.** What about the “Skull: incomplete ossification, affected litters” value (SWV mouse fetuses [2]; [6]) of the same compound?
**A.** 2

**Q.** What about the “Skull: interparietal incomplete ossification, affected fetuses” value (SWV mouse fetuses [2]; [6]) of the same compound?
**A.** 0

**Q.** What about the “Skull: parietal incomplete ossification, affected fetuses” value (SWV mouse fetuses [2]; [6]) of the same compound?
**A.** 0

**Q.** And the “Skull: supraoccipital incomplete ossification, affected fetuses” value (SWV mouse fetuses [2]; [6])?
**A.** 0

**Q.** And the “Sternebra: absent ossification, affected fetuses” value (SWV mouse fetuses [2]; [6])?
**A.** 0

**Q.** What about the “Sternebra: incomplete ossification, affected fetuses” value (SWV mouse fetuses [2]; [6]) of the same compound?
**A.** 5

**Q.** And the “Sternebra: incomplete ossification, affected litters” value (SWV mouse fetuses [2]; [6])?
**A.** 4

**Q.** What about the “Sternebra: misaligned, affected fetuses” value (SWV mouse fetuses [2]; [6]) of the same compound?
**A.** 0

**Q.** What about the “Sternebra: misshapen, affected fetuses” value (SWV mouse fetuses [2]; [6]) of the same compound?
**A.** 3/3

**Q.** What about the “Sternebra: misshapen, affected litters” value (SWV mouse fetuses [2]; [6]) of the same compound?
**A.** 3/3

**Q.** And the “Whole skeletal system: incomplete ossification, affected fetuses” value (SWV mouse fetuses [2]; [6])?
**A.** 1/1

**Q.** What about the “Whole skeletal system: incomplete ossification, affected litters” value (SWV mouse fetuses [2]; [6]) of the same compound?
**A.** 1/1

**Q.** And the Resorption rate (pregnant SWV mice [3]; 1/4.36 of LD50 (RIS 14.5 mg/kg) p.o. GD 4–17)?
**A.** 12.4%

**Q.** And the Fetus weight (pregnant SWV mice [3]; [5])?
**A.** 0.83 ± 0.05 ^a g

**Q.** And the Fetus weight (pregnant SWV mice [3]; [6])?
**A.** 0.89 ± 0.06 g

**Q.** What about the “Overall teratogenicity under the experimental conditions” value (SWV mouse fetuses [4]; SWV mice, p.o. GD 4–17, doses as fractions of LD50) of the same compound?
**A.** maternal-, embryo-, and fetotoxic

**Q.** What about the “Cleft palate, affected fetuses” value (SWV mouse fetuses [4]; female, SWV, mouse, in vivo) of the same compound?
**A.** 8

**Q.** What about the “Dilated brain ventricles, affected litters” value (SWV mouse fetuses [4]; female, SWV, mouse, in vivo) of the same compound?
**A.** 2/2

**Q.** What about the “Exencephaly, affected litters” value (SWV mouse fetuses [4]; female, SWV, mouse, in vivo) of the same compound?
**A.** 1/1

**Q.** And the “Fetuses with external abnormalities, %” value (SWV mouse fetuses [4]; female, SWV, mouse, in vivo)?
**A.** 0.4%

**Q.** And the “Malposition stomach, affected fetuses” value (SWV mouse fetuses [4]; female, SWV, mouse, in vivo)?
**A.** 0

**Q.** And the “Right aortic arch, affected fetuses” value (SWV mouse fetuses [4]; female, SWV, mouse, in vivo)?
**A.** 0

**Q.** Which results are given for `CCCC(CCC)C(=O)O` [VPA, valproic acid]?
**A.** Exposed fetuses with exencephaly (NMRI mice): 52%; Resorption rate (NMRI mice): 53%
